This is an account of results in US6867192B1, “Compounds useful in the treatment of inflammatory diseases” (priority 1998, dated 2005).

Starred links: 1 amine or outer side, 2 acyl side, 3 side chain; linkers in the order of their positions; H or OH if unused. Residues, ends and D or L forms follow the SMILES beside them. Groups on a side chain read outwards from the residue. *: point of attachment. Morpholide = C1CN(*)CCO1; Cbz = O=C(OCc1ccccc1)*; CO = O=C([*:1])[*:2]

T1 sequence (P13612 34-1032): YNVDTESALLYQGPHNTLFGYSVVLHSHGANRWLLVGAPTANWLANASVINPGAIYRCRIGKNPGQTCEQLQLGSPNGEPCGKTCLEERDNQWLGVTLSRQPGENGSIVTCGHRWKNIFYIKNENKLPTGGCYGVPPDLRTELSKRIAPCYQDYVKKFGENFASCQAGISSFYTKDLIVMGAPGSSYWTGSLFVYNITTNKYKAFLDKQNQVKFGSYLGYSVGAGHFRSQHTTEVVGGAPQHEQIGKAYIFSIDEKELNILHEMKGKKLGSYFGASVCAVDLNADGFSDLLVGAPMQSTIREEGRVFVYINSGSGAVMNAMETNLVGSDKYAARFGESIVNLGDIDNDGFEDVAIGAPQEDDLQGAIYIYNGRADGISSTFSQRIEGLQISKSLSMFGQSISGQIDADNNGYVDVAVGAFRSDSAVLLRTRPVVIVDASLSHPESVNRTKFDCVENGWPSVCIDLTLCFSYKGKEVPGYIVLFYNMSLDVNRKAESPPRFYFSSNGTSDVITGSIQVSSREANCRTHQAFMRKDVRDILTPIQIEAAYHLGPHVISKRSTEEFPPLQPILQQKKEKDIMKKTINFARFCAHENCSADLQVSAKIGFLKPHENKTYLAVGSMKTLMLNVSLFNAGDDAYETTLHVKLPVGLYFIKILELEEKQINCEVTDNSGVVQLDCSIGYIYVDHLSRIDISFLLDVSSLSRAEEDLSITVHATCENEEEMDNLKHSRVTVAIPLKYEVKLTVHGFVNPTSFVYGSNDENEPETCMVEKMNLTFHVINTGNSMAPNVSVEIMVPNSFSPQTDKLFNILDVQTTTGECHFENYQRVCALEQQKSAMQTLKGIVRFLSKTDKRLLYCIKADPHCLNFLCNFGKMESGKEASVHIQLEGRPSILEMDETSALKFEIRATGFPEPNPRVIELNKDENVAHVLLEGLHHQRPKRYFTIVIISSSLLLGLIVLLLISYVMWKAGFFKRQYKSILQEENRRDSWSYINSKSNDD
T1 sequence (P05556 21-798): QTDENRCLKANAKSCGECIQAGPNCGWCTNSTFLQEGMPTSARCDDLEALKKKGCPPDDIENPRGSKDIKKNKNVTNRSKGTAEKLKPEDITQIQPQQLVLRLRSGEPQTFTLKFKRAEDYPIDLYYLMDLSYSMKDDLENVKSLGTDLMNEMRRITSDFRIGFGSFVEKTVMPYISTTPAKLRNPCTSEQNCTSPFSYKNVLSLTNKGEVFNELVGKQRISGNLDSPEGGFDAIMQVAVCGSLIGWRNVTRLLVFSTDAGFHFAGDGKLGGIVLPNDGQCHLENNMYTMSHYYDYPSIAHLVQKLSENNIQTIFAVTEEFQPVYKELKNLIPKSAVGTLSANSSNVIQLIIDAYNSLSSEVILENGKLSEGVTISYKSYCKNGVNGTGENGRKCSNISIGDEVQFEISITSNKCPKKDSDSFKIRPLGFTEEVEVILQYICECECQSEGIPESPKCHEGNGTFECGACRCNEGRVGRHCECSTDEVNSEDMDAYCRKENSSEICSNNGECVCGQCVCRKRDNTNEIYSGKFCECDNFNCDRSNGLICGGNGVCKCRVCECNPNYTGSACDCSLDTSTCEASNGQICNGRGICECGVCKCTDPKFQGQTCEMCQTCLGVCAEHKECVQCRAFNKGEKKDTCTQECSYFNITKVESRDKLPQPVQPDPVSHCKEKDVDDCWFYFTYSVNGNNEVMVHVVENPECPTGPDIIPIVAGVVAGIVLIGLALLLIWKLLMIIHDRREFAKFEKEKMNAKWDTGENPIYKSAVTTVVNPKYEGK

This test concerns the target T1, integrin VLA-4, expressed on the Jurkat J6 (human lymphoblast cell line) cell membrane with VCAM-1 (Homo sapiens, UniProt P05556+P13612).
T1 construct: integrin VLA-4, expressed on the Jurkat J6 (human lymphoblast cell line) cell membrane; endogenous in cells; host or cells: Jurkat J6 cells (integrin). zzVCAM-1 was made in house in Drosophila melanogaster S2 cells
Kind of test: Jurkat J6/VCAM-1 adhesion assay. Conditions: Jurkat J6 cell adhesion to VCAM-1, 1 mM MnCl2; mean of n experiments. It is filed as cell-based. How it is done:
(1) Jurkat J6/VCAM-1 Adhesion Assay
This assay was used to investigate the interaction of the integrin VLA-4, expressed on the Jurkat J6 (human lymphoblast cell line) cell membrane with VCAM-1. Polystyrene 96-well microtitre plates were coated with human immunoglobulin G (IgG; Sigma Chemicals, UK, Product No. 14506) at a concentration of 0.05 mg ml^−1 in bicarbonate buffer (36 mM NaHCO3 and 22 mM Na2CO3, prepared in Dulbecco's phosphate buffered saline at pH 9.8 (PBS); Sigma Chemicals, UK, Product No. 14190-094) for 2 hours at 37° C. This solution was then aspirated and the plates were washed twice with PBS.
VCAM-1 was prepared by cloning its constituent seven domains into a Drosophila expression system with a zz (Protein A) tag. This zzVCAM-1 was then expressed from Drosophila melanogaster S2 cell culture, induced with copper. Protease inhibitors were added and the culture supernatant was clarified either by filtration through a 0.2 μm filter or by centrifugation. The zzVCAM-1 was then purified from this clarified medium using an IgG agarose column, equilibrated with either 20 mM sodium phosphate pH 7.2 alone or in the presence of 0.5M sodium chloride. Elution of zzVCAM-1 from the column was mediated using 3M ammonium thiocyanate, which was subsequently removed using a G25 desalting column, equilibrated with 20 mM sodium phosphate, pH 7.2. The purified zzVCAM-1 was then concentrated to a small volume (Amicon stirred cell concentrators) until a concentration of 62.5 ng ml^−1 was obtained, calculated using the extinction coefficient value.
This solution of zzVCAM-1 was then incubated overnight at 4° C. in the IgG coated microtitre plates with 3% bovine serum albumin (BSA) in PBS, followed by aspiration and two further washes with PBS. A concentration of the Jurkat J6 cells (6×10^6 cels ml^−1), grown in cell media RPMI 1640 (HyClone Ltd, Product No. B-9106-L) supplemented with 10% heat inactivated fetal calf serum (FCS; Gibco BRL, Product No. 10099-075) and 2 mM L-glutamine, were labelled with 10 μM of the fluorescent dye, 2′, 7′-bis(2-carboxyethyl)-5-(e6)-carboxyfluorescein acetoxymethyl ester (BCECF-AM; Molecular Probes Inc, Product No. B-1150) at 37° C. for 10 minutes. The excess dye was then removed by centrifugation at 500×g for 5 minutes and the cells were resuspended at a concentration of 1.2×10^7 cells ml^−1 in Hank's balanced salt solution (HBSS; Gibco BRL, Product No. 14190-094).
Equal volumes of compounds (dissolved in an appropriate solvent and diluted in HBSS containing 1 mM MnCl2) and the labelled Jurkat J6 cells, were added to the VCAM-1 coated plates and adhesion was allowed to proceed for 30 minutes at 37° C. Non, or loosely adhered cells, were removed by inversion of the plate and blotted with tissue paper. Two washes with PBS and further blotting were then performed, before the addition of 2% detergent (Triton-X®; Sigma Chemicals UK, Product No. X100). Counting was undertaken in a Wallac Viktor™ Fluorimeter, where low fluorescence values were indicative of compounds which had inhibited adhesion. All samples were assayed in singlicate and the following four parameter curve fit, shown by Equation (I) was applied: [formula]
Where a is the minimum, b is the Hill slope, c is the IC50 and d is the maximum. (Maximum and minimum values are those compared to adhesion in the absence of compound and in the presence of the dipotassium salt of 2 mM EDTA; Sigma Chemicals, UK, Product No. ED2P). Data is presented as the mean pIC50 with the standard error of the mean of n experiments.
In general, IC50 refers to the point on the concentration scale where inhibition reaches its midpoint. A lower IC50 goes with higher potency. In the case of `Cc1ccccc1OCC(=O)N[C@@H](CC(C)C)C(=O)N[C@@H](Cc1ccc(OC(=O)N2CCC(C(=O)N3CCCCC3)CC2)cc1)C(=O)O` [Example 30, (2S)-2-[((2S)-4-Methyl-2-{[2-(2-methylphenoxy)acetyl]amino}pentanoyl)amino]-3-[4-({[4-(1-piperidinylcarbonyl)-1-piperidinyl]carbonyl}oxy)phenyl]propanoic acid], the IC50 was 5.75 nM.

For `CC(C)C[C@H](NC(=O)COc1ccccc1C1CCCCC1)C(=O)N[C@@H](Cc1ccc(OC(=O)N2CCOCC2)cc1)C(=O)O` [Example 39, (2S)-2-[((2S)-2-{[2-(2-Cyclohexylphenoxy)acetyl]amino}-4-methylpentanoyl)amino]-3-{4-[(4-morpholinylcarbonyl)oxy]phenyl}propanoic acid], the IC50 was 22.4 nM.

As for `CCCc1ccccc1OCC(=O)N[C@@H](CC(C)C)C(=O)N[C@@H](Cc1ccc(OC(=O)N2CCOCC2)cc1)C(=O)O` [Example 37, (2S)-2-[((2S)-4-Methyl-2-{[2-(2-propylphenoxy)acetyl]amino}pentanoyl)amino]-3-{4-[(4-morpholinylcarbonyl)oxy]phenyl}propanoic acid], the IC50 is 5.75 nM. The value for `CC(C)C[C@H](NC(=O)COc1ccccc1I)C(=O)N[C@@H](Cc1ccc(OC(=O)N2CCN(C(=O)c3ccccc3)CC2)cc1)C(=O)O` [Example 19, (2S)-3-(4-{[(4-Benzoyl-1-piperazinyl)carbonyl]oxy}phenyl)-2-[((2S)-2-{[2-(2-iodophenoxy)acetyl]amino}-4-methylpentanoyl)amino]propanoic acid] was 7.59 nM.

The compound `CC(C)C[C@H](NC(=O)COc1ccccc1I)C(=O)N[C@@H](Cc1ccc(OC(=O)N2CCN(C(=O)c3ccco3)CC2)cc1)C(=O)O` [Example 41, (2S)-3-[4-({[4-(2-Furoyl)-1-piperazinyl]carbonyl}oxy)phenyl]-2-[((2S)-2-{[2-(2-iodophenoxy)acetyl]amino}-4-methylpentanoyl)amino]propanoic acid] gave an IC50 of 9.33 nM.

Compound `CC(C)C[C@H](NC(=O)COc1ccccc1I)C(=O)N[C@@H](Cc1ccc(OC(=O)N2CCC(NC(=O)CC3CCCCC3)CC2)cc1)C(=O)O` [Example 8, (2S)-3-{4-[({4-[(2-Cyclohexylacetyl)amino]-1-piperidinyl}carbonyl)oxy]phenyl}-2-[((2S)-2-{[2-(2-iodophenoxy)acetyl]amino}-4-methylpentanoyl)amino]propanoic acid] showed an IC50 of 42.7 nM. The value for `CC(C)C[C@H](NC(=O)COc1ccccc1C(=O)c1ccccc1)C(=O)N[C@@H](Cc1ccc(OC(=O)N2CCC(NC(=O)Cc3ccccc3)CC2)cc1)C(=O)O` [Example 1, (2S)-2-[((2S)-2-{[2-(2-Benzoylphenoxy)acetyl]amino}-4-methylpentanoyl)amino]-3-{4-[({4-[(2-phenylacetyl)amino]-1-piperidinyl}carbonyl)oxy]phenyl}propanoic acid] was 13.2 nM; that for `CC(C)C[C@H](NC(=O)COc1ccccc1C(C)(C)C)C(=O)N[C@@H](Cc1ccc(OC(=O)N2CCN(C(=O)c3ccco3)CC2)cc1)C(=O)O` [Example 42, (2S)-2-{[(2S)-2-({2-[2-(Tert-butyl)phenoxy]acetyl}amino)-4-methylpentanoyl]amino}-3-[4-({[4-(2-furoyl)-1-piperazinyl]carbonyl}oxy)phenyl]propanoic acid] was 11 nM.

The compound `CC(C)C[C@H](NC(=O)c1cccc2c1oc1ccccc12)C(=O)N[C@@H](Cc1ccc(OC(=O)N2CCN(C(=O)c3ccccc3)CC2)cc1)C(=O)O` [Example 12, (2S)-3-(4-{[(4-Benzoyl-1-piperazinyl)carbonyl]oxy}phenyl)-2-({(2S)-2-[(dibenzo[b,d]furan-4-ylcarbonyl)amino]-4-methylpentanoyl}amino)propanoic acid] showed an IC50 of 11 nM. As to `CC(C)C[C@H](NC(=O)COc1ccc(C(N)=O)cc1)C(=O)N[C@@H](Cc1ccc(OC(=O)N2CCC(C(N)=O)CC2)cc1)C(=O)O` [Example 7, (2S)-2-{[(2S)-2-({2-[4-(Aminocarbonyl)phenoxy]acetyl}amino)-4-methylpentanoyl]amino}-3-[4-({[4-(aminocarbonyl)-1-piperidinyl]carbonyl}oxy)phenyl]propanoic acid], the IC50 was 2.63 nM.

`CC(C)C[C@H](NC(=O)COc1ccccc1I)C(=O)N[C@@H](Cc1ccc(OC(=O)N2CCC(NC(=O)Cc3ccccc3)CC2)cc1)C(=O)O` [Example 14, (2S)-2-[((2S)-2-{[2-(2-Iodophenoxy)acetyl]amino}-4-methylpentanoyl)amino]-3-{4-[({4-[(2-phenylacetyl)amino]-1-piperidinyl}carbonyl)oxy]phenyl}propanoic acid]: the concentration for half-maximal inhibition (IC50) is 16.6 nM. On to `CC(C)C[C@H](NC(=O)COc1ccc(Cl)cc1Cl)C(=O)N[C@@H](Cc1ccc(OC(=O)N2CCN(C(=O)c3ccccc3)CC2)cc1)C(=O)O` [Example 22, (2S)-3-(4-{[(4-Benzoyl-1-piperazinyl)carbonyl]oxy}phenyl)-2-[((2S)-2-{[2-(2,4-dichlorophenoxy)acetyl]amino}-4-methylpentanoyl)amino]propanoic acid], for which the IC50 was 22.4 nM.

Take `CC(C)C[C@H](NC(=O)c1cccc2c1oc1ccccc12)C(=O)N[C@@H](Cc1ccc(OC(=O)N2CCOCC2)cc1)C(=O)O` [Example 10, (2S)-2-({(2S)-2-[(Dibenzo[b,d]furan-4-ylcarbonyl)amino]-4-methylpentanoyl}amino)-3-{4-[(4-morpholinylcarbonyl)oxy]phenyl}propanoic acid]: inhibition was half-maximal at 8.32 nM (IC50). `CC(C)C[C@H](NC(=O)c1cccc2c1oc1ccccc12)C(=O)N[C@@H](Cc1ccc(OC(=O)N2CCC(NC(=O)Cc3ccccc3)CC2)cc1)C(=O)O` [Example 13, (2S)-2-({(2S)-2-[(Dibenzo[b,d]furan-4-ylcarbonyl)amino]-4-methylpentanoyl}amino)-3-{4-[({4-[(2-phenylacetyl)amino]-1-piperidinyl}carbonyl)oxy]phenyl}propanoic acid] gave an IC50 of 25.7 nM. The value for `CC(C)C[C@H](NC(=O)COc1ccccc1C1CCCCC1)C(=O)N[C@@H](Cc1ccc(OC(=O)N2CCN(C(=O)c3ccco3)CC2)cc1)C(=O)O` [Example 43, (2S)-2-[((2S)-2-{[2-(2-Cycohexylphenoxy)acetyl]amino}-4-methylpentanoyl)amino]-3-[4-({[4-(2-furoyl)-1-piperazinyl]carbonyl}oxy)phenyl]propanoic acid] was 22.4 nM. `CC(C)C[C@H](NC(=O)COc1ccccc1C(C)(C)C)C(=O)N[C@@H](Cc1ccc(OC(=O)N2CCC(NC(=O)Cc3ccccc3)CC2)cc1)C(=O)O` [Example 51, (2S)-2-{[(2S)-2-({2-[2-(Tert-butyl)phenoxy]acetyl}amino)-4-methylpentanoyl]amino}-3-{4-[({4-[(2-phenylacetyl)amino]-1-piperidinyl}carbonyl)oxy]phenyl}propanoic acid] gave a half-maximal inhibitory concentration (IC50) of 13.8 nM. As for `CC(C)C[C@H](NC(=O)c1cccc2c1oc1ccccc12)C(=O)N[C@@H](Cc1ccc(OC(=O)N2CCC(NC(=O)Cc3ccc(Cl)cc3)CC2)cc1)C(=O)O` [Example 49, (2S)-3-(4-{[(4-{[2-(4-Chlorophenyl)acetyl]amino}-1-piperidinyl)carbonyl]oxy}phenyl)-2-({(2S)-2-[(dibenzo[b,d]furan-4-ylcarbonyl)amino]-4-methylpentanoyl}amino)propanoic acid], the figure is 44.7 nM; as for `CC(C)C[C@H](NC(=O)OCc1ccccc1)C(=O)N[C@@H](Cc1ccc(OC(=O)N2CCOCC2)cc1)C(=O)O` [Example 40, (2S)-2-[((2S)-2-{[(Benzyloxy)carbonyl]amino}-4-methylpentanoyl)amino]-3-{4-[(4-morpholinylcarbonyl)oxy]phenyl}propanoic acid] (Cbz-Leu-Tyr([CO-Morpholide])-OH), 9.12 nM.
